Laboratory results: PubChem BioAssay AID1996
In brackets after ≈: the same amount, converted by molar mass.

details: buffer; pH 7.4; 200.0 µM

Row | Structure (SMILES) | solubility kinetic [µg/mL]
1 | COc1ccccc1C(=O)Nc1cccc2nc(C)ccc12 | 39.1 (≈ 134 µM)
2 | O=C(Nc1cccc(O)c1)c1ccccc1[N+](=O)[O-] | 36.3 (≈ 141 µM)
3 | O=C(COC(=O)/C=C/c1ccc(Cl)cc1Cl)NCC1CCCO1 (stereo unspecified) | 10.4 (≈ 29 µM)
4 | COc1ccccc1NC(=O)c1cc(C)oc1C | > 36.8
5 | CC(C)OCC(O)CN1CCC(Cc2ccccc2)CC1.Cl (stereo unspecified) | > 49.2
6 | CN1C(=O)N(C)c2ccc(Br)c3cccc1c23 | < 0.3
7 | CC1=NOC(=O)/C1=C/c1ccc2c(c1)OCO2 | 25.1 (≈ 109 µM)
8 | CCC(C)Nc1nc(-c2ccccn2)nc2ccccc12 (stereo unspecified) | > 41.8
9 | C=CCc1ccc(OC(=O)NC2CCCCC2)c(OC)c1 | 4.5 (≈ 15.6 µM)
10 | COc1ccc(CC(=O)OCC(=O)c2ccc[nH]2)cc1 | > 41
11 | NC(=O)NC(=O)COC(=O)c1sc2ccccc2c1Cl | 1.2 (≈ 3.84 µM)
12 | Brc1ccc(OCCN2CCOCC2)cc1 | 29 (≈ 101 µM)
13 | CC1(C)C(=O)Nc2ccccc2N1C(=O)COC(=O)Cc1ccccc1F | > 55.6
14 | COc1ccc(C(=O)N2CCN=C2SC)cc1 | > 37.5
15 | O=S(=O)(Nc1ccc2c(c1)OCCO2)c1c(F)cccc1F | 47.8 (≈ 146 µM)
16 | O=[N+]([O-])c1ccc(N2CCCC2)nc1N1CCCC1 | 21.4 (≈ 81.6 µM)
17 | C=CCn1c(O)c(C(CC)=Nc2ccc(C(=O)O)cc2)c(=O)[nH]c1=O | > 51.5
18 | NC(=O)C1CCN(c2oc(-c3cccs3)nc2S(=O)(=O)c2ccc(Cl)cc2)CC1 | 51.9 (≈ 115 µM)
19 | CCOC(=O)c1c(NC(=S)N2CCOCC2)sc(C)c1C | < 0.4
20 | CCN(C(=O)CSc1ccccn1)C1CCCCC1 | > 41.8
21 | COC(=O)c1[nH]c2cc(C)ccc2c1NC(=O)CN1CCOCC1 | > 49.7
22 | O=C1[C@@H]2C(c3cccnc3)=NO[C@@H]2C(=O)N1c1ccc2ccccc2c1 | 43 (≈ 125 µM)

Row | Structure (SMILES) | solubility kinetic [µg/mL]
23 | C=CCNC(=S)N1CCC(Cc2ccccc2)CC1 | 31.5 (≈ 115 µM)
24 | COc1ccc(OC)c(NC(=O)COC(=O)C2CCC2)c1 | > 44
25 | CS(=O)(=O)c1ccccc1C(=O)Nc1cccc2ncccc12 | 35.9 (≈ 110 µM)
26 | CCCC(=O)C1=C(N2CCCC2)CC(C)(C)C(C(=O)OC)C1=O (stereo unspecified) | 44.9 (≈ 140 µM)
27 | COc1cc(OC)cc(C(=O)OCC(=O)Nc2ccc3[nH]c(=O)[nH]c3c2)c1 | 4.4 (≈ 11.8 µM)
28 | COc1ccc(NC(=O)C2CCCN(C(=O)Nc3ccc(F)cc3)C2)cc1OC (stereo unspecified) | 13.2 (≈ 32.9 µM)
29 | CCN1CCCC1CNC(=O)c1cc2cc(OC)c(OC)cc2[nH]1 (stereo unspecified) | > 49.7
30 | C=CCn1c(SCC(=O)Nc2ccc(C(=O)O)cc2)nc2scc(-c3ccccc3)c2c1=O | > 71.6
31 | CN(C)/C=N/c1sc2c(c1C(N)=O)CCCC2 | 19.4 (≈ 77.2 µM)
32 | Cc1ccccc1N1C(=O)Cc2ccccc2C1=O | 35.4 (≈ 141 µM)
33 | Cc1cccc(C)c1NC(=S)NCc1ccncc1 | > 40.7
34 | COc1cccc(OCCNc2ccc([N+](=O)[O-])cn2)c1 | 4.7 (≈ 16.2 µM)
35 | O=C(OCC(=O)N1CCCC1)c1cc(=O)c2ccccc2o1 | > 45.2
36 | CN1CCN(CC(=O)Nc2nc3c(s2)CCCC3)CC1 | > 44.2
37 | Cc1ccc(C(=O)NCc2ccco2)cc1 | > 32.3
38 | CCN(CC)S(=O)(=O)c1cccc(C(=O)N[C@H](C(=O)NC2=NCCS2)C(C)C)c1 | 64.5 (≈ 146 µM)
39 | O=C(/C=C/c1ccccc1[N+](=O)[O-])N1CCOCC1 | > 39.3
40 | COc1ccc(C(C)=O)cc1COC(=O)c1cccnc1SC | < 0.7
41 | Cc1ccc(C)c(OCCN2CCOCC2)c1 | 24.9 (≈ 106 µM)
42 | O=C1NCCN1CCNS(=O)(=O)c1ccc(F)c(Cl)c1 | > 48.3
43 | O=C(Nc1cccc(C(F)(F)F)c1)c1cc[n+]([O-])cc1 | > 42.3
44 | Cn1c(N)c(C(=O)COC(=O)COc2cccc(Br)c2)c(=O)n(C)c1=O | 11.3 (≈ 26.5 µM)

Row | Structure (SMILES) | solubility kinetic [µg/mL]
45 | O=C(OC1CCOC1=O)c1cc(Cl)ccc1[N+](=O)[O-] (stereo unspecified) | 42.1 (≈ 147 µM)
46 | O=C1NCCCCC1NS(=O)(=O)c1cccc2ccccc12 (stereo unspecified) | > 47.8
47 | O=C(CN1CCCCCC1)NCC1CCCO1.O=C(O)C(=O)O (stereo unspecified) | > 49.6
48 | Cc1ccc(C2Nc3cccc4cccc(c34)N2)cc1 | 4.7 (≈ 18.1 µM)
49 | COc1ccccc1Nc1nc(NCc2ccco2)c2ccccc2n1.Cl | 0.4
50 | Cc1ccc(CN2CC(C(=O)Nc3ccc(C)cn3)CC2=O)cc1 (stereo unspecified) | > 48.5
51 | Cc1cnc(C(=O)Nc2ccc(OC(F)(F)F)cc2)cn1 | 2.6 (≈ 8.75 µM)
52 | CN(C)c1ccc(CC2C(=O)Nc3ccccc32)cc1 (stereo unspecified) | 37.3 (≈ 140 µM)
53 | CCOc1ccc(C(=O)NCC(=O)N2CCCCCCC2)cc1 | > 47.8
54 | COc1ccccc1NC(=O)CN1CCCCCC1 | 24.3 (≈ 92.6 µM)
55 | Cc1ccc(NC(=O)CCOc2ccccc2)c(C)c1 | 20.2 (≈ 75 µM)
56 | O=C(c1ccc(N2C(=O)c3ccccc3C2=O)cc1)N1CCCCC1 | > 50.2
57 | CN(C)C(=S)NC(=O)C12CC3CC(C)(CC(C)(C3)C1)C2 | 27.4 (≈ 93.1 µM)
58 | CCOc1ccc(N(C)Cc2cc(=O)oc3ccc(OC)cc23)cc1 | 8.1 (≈ 23.9 µM)
59 | N/C(=N\OC(=O)Nc1ccccc1)c1ncc([N+](=O)[O-])s1 | 3.8 (≈ 12.4 µM)
60 | O=C(N[C@@H](Cc1ccccc1)C(=O)NC1CC1)c1ccc(Cl)cc1 | 6.8 (≈ 19.8 µM)
61 | CCn1c(=O)c(C(=O)Nc2ccc(C)cc2C)c(O)c2ccccc21 | < 0.4
62 | CN(C)/C=C/C(=O)c1ccc(OCCN(C)c2ccccn2)cc1 | > 48.8
63 | O=C(COC(=O)/C=C/c1cc(Br)ccc1F)NC1CC1 | 7 (≈ 20.5 µM)
64 | CC(=Nc1ccccc1C(F)(F)F)c1ccncc1 | < 0.3
65 | CC(=O)Nc1ccc(S(=O)(=O)NCCc2ccccn2)cc1 | 44 (≈ 138 µM)
66 | OCC1(CC2CCCCO2)CCN(Cc2cccc(O)c2)CC1 (stereo unspecified) | 47.3 (≈ 148 µM)

Row | Structure (SMILES) | solubility kinetic [µg/mL]
67 | OC(c1ccccc1)(c1ccccc1)C1CCNCC1 | > 40.1
68 | O=S(=O)(Cc1ccccc1)Cc1cnc(Cl)s1 | > 43.2
69 | CC1CCCN(C(=O)c2ccc3c(c2)OCCO3)C1 (stereo unspecified) | > 39.2
70 | COCCNC(=O)CSc1ccccc1C(=O)O | > 40.4
71 | Cc1cc(SCC(=O)NCC2CCCO2)nc2ccccc12 (stereo unspecified) | > 47.5
72 | O=S(=O)(CCN1CCOCC1)c1ccc(OC(F)(F)F)cc1 | > 50.9
73 | C/C(Cl)=C\C[N+](C)(C)CC(=O)OCCc1ccccc1.[Br-] | > 56.5
74 | Cl.c1ccc2c(c1)CCCC2C1=NCCN1 (stereo unspecified) | > 35.5
75 | CC(C)CNC1CCS(=O)(=O)C1.Cl (stereo unspecified) | > 34.2
76 | NS(=O)(=O)c1ccc(CNC(=O)c2ccc(C(=O)c3ccccc3)cc2)cc1 | 14.6 (≈ 37 µM)
77 | CCN(CC)CCOC(=O)C(c1ccccc1)c1ccccc1.Cl | > 52.2
78 | Cc1cc(C(=O)O)ccc1NCc1ccncc1 | > 36.3
79 | Cc1cc(C)nc(Nc2nc3ccccc3o2)n1 | > 36
80 | CCOC(=O)/C=C1\SCC(=O)N1CC(=O)Nc1cc(S(=O)(=O)N(C)C)ccc1C | 26.2 (≈ 59.3 µM)
81 | C=CCNC(=O)C1CC1(c1ccc(C)cc1)c1ccc(C)cc1 (stereo unspecified) | 30.6 (≈ 100 µM)
82 | N#Cc1ccc(N2CCN(C(=O)c3cccs3)CC2)c(F)c1 | 40.1 (≈ 127 µM)
83 | COc1cc(/C=C(\NC(C)=O)C(=O)O)cc(OC)c1OC | > 44.3
84 | CCN1CCN(c2nc3c(C)cccn3c(=O)c2C=C(C#N)C#N)CC1 | 51.1 (≈ 147 µM)
85 | CCc1cccc2c(C(=O)C(NCCOC)c3ccccc3)c[nH]c12 (stereo unspecified) | > 50.5
86 | CSc1ncccc1C(=O)OCC(=O)NC1CC1 | > 39.9
